Data from PubChem BioAssay (NCI).
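Where inhibition never reached the appropriate level, the endpoint shown equals the highest concentration tested. Otherwise, values were interpolated linearly from a five-concentration, 48-hour dose response in 96-well plates. TGI: concentration producing complete growth inhibition.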

What was measured:
Experiment in all cases: NCI tumour cell line growth inhibition, 48 h
[1] = tested on: DMS 273 small cell lung
[2] = tested on: BT-549 breast
[3] = tested on: RXF 393 renal
[4] = tested on: SR leukemia
[5] = tested on: LXFL 529 NSCLC
[6] = tested on: SK-OV-3 ovarian
[7] = tested on: MDA-MB-435
[8] = tested on: UO-31 renal
[9] = tested on: MALME-3M melanoma
[10] = tested on: MCF7 breast
[11] = tested on: NCI-H460 lung
[12] = tested on: SK-MEL-28 melanoma
[13] = tested on: SNB-75 CNS
[14] = tested on: A549 NSCLC
[15] = tested on: 786-0 renal
[16] = tested on: HOP-92 NSCLC
[17] = tested on: SF-268 CNS
[18] = tested on: A498 renal
[19] = tested on: UACC-62 melanoma
[20] = tested on: HCT-116 colon
[21] = tested on: DMS 114 small cell lung
[22] = tested on: SNB-19 CNS
[23] = tested on: PC-3 prostate
[24] = tested on: OVCAR-8 ovarian
[25] = tested on: SK-MEL-2 melanoma
[26] = tested on: TK-10 renal
[27] = tested on: SW-620 colon
[28] = tested on: RXF-631 renal
[29] = tested on: IGROV1 ovarian
[30] = tested on: NCI-H23 lung
[31] = tested on: SN12C renal
[32] = tested on: OVCAR-3 ovarian
[33] = tested on: NCI-H226 lung
[34] = tested on: KM20L2 colon
[35] = tested on: HS 578T breast
[36] = tested on: COLO 205 colon
[37] = tested on: MOLT-4 leukemia
[38] = tested on: MDA-N
[39] = tested on: CCRF-CEM leukemia
[40] = tested on: HT29 colon
[41] = tested on: DLD-1 colon
[42] = tested on: CAKI-1 renal
[43] = tested on: NCI-H522 lung
[44] = tested on: HOP-62 NSCLC
[45] = tested on: ACHN renal
[46] = tested on: SNB-78 CNS
[47] = tested on: UACC-257 melanoma
[48] = tested on: XF 498 CNS
[49] = tested on: SF-295 CNS
[50] = tested on: RPMI-8226 leukemia
[51] = tested on: M19-MEL melanoma
[52] = tested on: KM12 colon
[53] = tested on: M14 melanoma
[54] = tested on: SF-539 CNS
[55] = tested on: T-47D breast
[56] = tested on: HCT-15 colon
[57] = tested on: EKVX NSCLC
[58] = tested on: OVCAR-4 ovarian
[59] = tested on: OVCAR-5 ovarian
[60] = tested on: K-562 leukemia
[61] = tested on: SK-MEL-5 melanoma
[62] = tested on: U251 CNS
[63] = tested on: DU-145 prostate
[64] = tested on: LOX IMVI melanoma
[65] = tested on: HCC-2998 colon
[66] = tested on: HL-60(TB) leukemia
[67] = tested on: HOP-18 NSCLC

SMILES: COc1ccc2nc3ccccc3c(NCCCN(C)CCCl)c2c1
- TGI [1]: 1.36 µM
- TGI [2]: 2.57 µM
- TGI [3]: 1.45 µM
- TGI [4]: 0.146 µM
- TGI [5]: 1.53 µM
- TGI [6]: 3.34 µM
- TGI [7]: 1.54 µM
- TGI [8]: 2.67 µM
- TGI [9]: 1.55 µM
- TGI [10]: 1.46 µM
- TGI [11]: 1.07 µM
- TGI [12]: 2.01 µM
- TGI [13]: 1.47 µM
- TGI [14]: 2.42 µM
- TGI [15]: 1.07 µM
- TGI [16]: 1.24 µM
- TGI [17]: 2.75 µM
- TGI [18]: 2.42 µM
- TGI [19]: 2.05 µM
- TGI [20]: 1.36 µM
- TGI [21]: 1.68 µM
- TGI [22]: 2.06 µM
- TGI [23]: 1.6 µM
- TGI [24]: 2.02 µM
- TGI [25]: 1.81 µM
- TGI [26]: 4.08 µM
- TGI [27]: 1.48 µM
- TGI [28]: 2.15 µM
- TGI [29]: 2.21 µM
- TGI [30]: 1.2 µM
- TGI [31]: 1.55 µM
- TGI [32]: 2.07 µM
- TGI [33]: 1.62 µM
- TGI [34]: 2.5 µM
- TGI [35]: 3.85 µM
- TGI [36]: 1.65 µM
- TGI [37]: 0.888 µM
- TGI [38]: 2.02 µM
- TGI [39]: 1.58 µM
- TGI [40]: 2.66 µM
- TGI [41]: 3.68 µM
- TGI [42]: 1.62 µM
- TGI [43]: 1.15 µM
- TGI [44]: 3.05 µM
- TGI [45]: 0.695 µM
- TGI [46]: 2.27 µM
- TGI [47]: 2.24 µM
- TGI [48]: 0.77 µM
- TGI [49]: 2.44 µM
- TGI [50]: 1.12 µM
- TGI [51]: 1.9 µM
- TGI [52]: 2.06 µM
- TGI [53]: 2.33 µM
- TGI [54]: 1.29 µM
- TGI [55]: 0.467 µM
- TGI [56]: 8.29 µM
- TGI [57]: 3.15 µM
- TGI [58]: 2.07 µM
- TGI [59]: 3.4 µM
- TGI [60]: 2.59 µM
- TGI [61]: 1.59 µM
- TGI [62]: 1.71 µM
- TGI [63]: 1.48 µM
- TGI [64]: 1.16 µM
- TGI [65]: 1.69 µM

SMILES: COc1ccccc1/C=C1\CCC(CCN2CCOCC2)C1=O (configuration not stated)
- TGI [1]: > 100 µM
- TGI [3]: > 100 µM
- TGI [4]: > 100 µM
- TGI [5]: > 100 µM
- TGI [8]: > 100 µM
- TGI [9]: > 100 µM
- TGI [11]: > 100 µM
- TGI [12]: > 100 µM
- TGI [13]: > 100 µM
- TGI [14]: > 100 µM
- TGI [15]: > 100 µM
- TGI [16]: > 100 µM
- TGI [17]: > 100 µM
- TGI [18]: > 100 µM
- TGI [19]: > 100 µM
- TGI [20]: > 100 µM
- TGI [21]: > 100 µM
- TGI [22]: > 100 µM
- TGI [24]: > 100 µM
- TGI [25]: > 100 µM
- TGI [26]: > 100 µM
- TGI [27]: > 100 µM
- TGI [28]: > 100 µM
- TGI [29]: > 100 µM
- TGI [30]: > 100 µM
- TGI [31]: > 100 µM
- TGI [32]: > 100 µM
- TGI [33]: > 100 µM
- TGI [34]: > 100 µM
- TGI [37]: > 100 µM
- TGI [39]: > 100 µM
- TGI [40]: > 100 µM
- TGI [41]: > 100 µM
- TGI [42]: > 100 µM
- TGI [44]: > 100 µM
- TGI [45]: > 100 µM
- TGI [46]: > 100 µM
- TGI [47]: > 100 µM
- TGI [48]: > 100 µM
- TGI [49]: > 100 µM
- TGI [50]: > 100 µM
- TGI [51]: > 100 µM
- TGI [52]: > 100 µM
- TGI [53]: > 100 µM
- TGI [66]: > 100 µM
- TGI [54]: > 100 µM
- TGI [67]: > 100 µM
- TGI [56]: > 100 µM
- TGI [57]: > 100 µM
- TGI [58]: > 100 µM
- TGI [59]: > 100 µM
- TGI [60]: > 100 µM
- TGI [61]: > 100 µM
- TGI [64]: > 100 µM
- TGI [65]: > 100 µM

SMILES: NC(N)=NS(=O)(=O)c1ccc(Nc2c3ccccc3nc3c(C(=O)Nc4ccc(S(N)(=O)=O)cc4)ccc(Cl)c23)cc1
- TGI [1]: > 100 µM
- TGI [3]: > 100 µM
- TGI [4]: > 100 µM
- TGI [5]: > 100 µM
- TGI [6]: > 100 µM
- TGI [8]: > 100 µM
- TGI [9]: > 100 µM
- TGI [11]: > 100 µM
- TGI [12]: > 100 µM
- TGI [13]: > 100 µM
- TGI [14]: > 100 µM
- TGI [15]: > 100 µM
- TGI [16]: > 100 µM
- TGI [17]: > 100 µM
- TGI [18]: > 100 µM
- TGI [19]: > 100 µM
- TGI [20]: > 100 µM
- TGI [21]: > 100 µM
- TGI [22]: > 100 µM
- TGI [24]: > 100 µM
- TGI [26]: > 100 µM
- TGI [27]: > 100 µM
- TGI [28]: > 100 µM
- TGI [29]: > 100 µM
- TGI [30]: > 100 µM
- TGI [31]: > 100 µM
- TGI [32]: > 100 µM
- TGI [33]: > 100 µM
- TGI [34]: > 100 µM
- TGI [36]: > 100 µM
- TGI [37]: > 100 µM
- TGI [40]: > 100 µM
- TGI [41]: > 100 µM
- TGI [42]: > 100 µM
- TGI [43]: > 100 µM
- TGI [44]: > 100 µM
- TGI [45]: > 100 µM
- TGI [46]: > 100 µM
- TGI [47]: > 100 µM
- TGI [48]: > 100 µM
- TGI [49]: > 100 µM
- TGI [50]: > 100 µM
- TGI [51]: > 100 µM
- TGI [52]: > 100 µM
- TGI [53]: > 100 µM
- TGI [66]: > 100 µM
- TGI [54]: > 100 µM
- TGI [67]: > 100 µM
- TGI [56]: > 100 µM
- TGI [57]: > 100 µM
- TGI [58]: > 100 µM
- TGI [59]: > 100 µM
- TGI [60]: > 100 µM
- TGI [61]: > 100 µM
- TGI [62]: > 100 µM
- TGI [64]: > 100 µM
- TGI [65]: > 100 µM
